Data reported in patent US10537535B2, “Histone deacetylase inhibitors” (The Regents of the University of California, priority 2015, dated 2020).
pIC50: −log10 of the molar value.

How the values were obtained:
pGMR-HTTQ120 flies = assay: Huntington's model Drosophila (pGMR-HTTQ120), rhabdomere count by pseudopupil analysis; assay type: in vivo
Description: To investigate the effect of diacetyl on neurodegeneration, Huntington model Drosophila flies (GMR-HTTQ120; expressing human huntington HTTQ120 protein from a GMR promoter) were exposed to odor 1 (diacetyl) at 1% concentration from filter paper for five days as a volatile scent. Following exposure, the omatidia in the eyes of the flies were visualized. […] The number of rhabdomeres present in the omatidia were counted (wildtype flies have 7 rhabdomeres in each omatidia).
When the transgenic flies expressing two copies of the human Huntington with poly-Q repeats (HTTQ120) under control of the eye-specific GMR promoter were raised at 18° C., the number of rhabdomeres in each ommatidium was similar to that of control flies (7) immediately post-eclosion (day 1, FIGS. 8A-8C). […] The mean number of rhabdomeres was reduced from 7 to ˜1 by day 10.
Flies were exposed to diacetyl in a cylindrical container (112 mm diameter×151 mm height). Each container was tightly closed but had 2 holes, one of which connected to an air suction port, and the other to a vial containing either of 5 mL paraffin oil or 5 mL 1% diacetyl in paraffin oil. A gentle suction was applied to pull the headspace from the odor or paraffin oil vials into the cylindrical structure (FIG. 11). pGMR-HTTQ120 flies were maintained at 18° C. Adult flies aged 1 d were transferred to fly vials containing fresh medium, and put into the odor-filled container at room temperature. Paraffin oil and 1% diacetyl solution were prepared and replaced every day. At the end of the fifth day of exposure, half of the flies were collected and subjected to pseudopupil analysis. The remaining flies were transferred to fresh medium and exposed to the odors for an additional 5 days. All treatments and experiments were performed at room temperature.
Pseudopupil Analysis was performed according to a protocol described previously (Song et al., 2013). Flies were decapitated and mounted on a microscope slide by dipping in a drop of nail polish. The arrangement of rhabdomeres in the ommatidia of the compound eyes were analyzed with Axio Imager M2 (Carl Zeiss, Oberkochen, Germany) using a 63× objective, and photographed with Axiocam 506 mono (Carl Zeiss). Six hundred ommatidia from 30 eyes of 15 flies were scored for each condition.

human HDAC3 = molecular target: T1, human HDAC3 (Homo sapiens, UniProt O15379); assay: Fluorometric HDAC activity assay, purified human HDAC3; assay type: biochemical; settings: purified human HDAC3, n=4-5
T1 construct: purchased BPS Bioscience 50073
T1 sequence (O15379 whole entry): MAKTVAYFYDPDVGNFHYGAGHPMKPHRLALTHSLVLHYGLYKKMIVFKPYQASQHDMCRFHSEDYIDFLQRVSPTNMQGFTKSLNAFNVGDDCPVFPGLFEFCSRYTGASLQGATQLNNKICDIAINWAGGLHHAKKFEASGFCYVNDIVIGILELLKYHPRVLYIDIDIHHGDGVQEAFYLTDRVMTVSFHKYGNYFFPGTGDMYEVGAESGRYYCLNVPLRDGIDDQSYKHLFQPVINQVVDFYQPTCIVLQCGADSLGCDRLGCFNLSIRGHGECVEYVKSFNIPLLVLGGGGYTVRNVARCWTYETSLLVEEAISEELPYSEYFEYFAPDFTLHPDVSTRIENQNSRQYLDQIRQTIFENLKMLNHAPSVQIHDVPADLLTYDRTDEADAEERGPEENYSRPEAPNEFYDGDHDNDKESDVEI
T1 sequence (Q9Y618 395-489 partner limits assumed): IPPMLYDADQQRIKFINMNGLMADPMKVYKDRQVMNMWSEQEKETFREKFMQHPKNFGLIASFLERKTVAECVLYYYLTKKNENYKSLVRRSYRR
Method: In order to directly test whether diacetyl acts as an inhibitor of HDACs, in vitro acetylation assays was performed with purified human HDACs. In this example, β-hydroxybutyrate (a naturally-occurring HDAC inhibitor secreted by the liver, targeting zinc-dependent HDACs) was used for comparison. HDAC activity of class I HDACs (HDAC1, 2, 3 and 8) was measured with the fluorometric HDAC Activity Assay kit: HDAC1 (10011563, Cayman Chemical, Ann Arbor, Mich.), HDAC2, HDAC 3 and HDAC 8 (50062, 50073 and 50068, BPS Bioscience, San Diego, Calif.), according to the manufacturer's instructions.

Gr63a = assay: Whole mount RNA in situ of adult Drosophila antenna Gr63a; assay type: in vivo; settings: 5 days; odor 1 1% on filter paper, sodium butyrate 10 mM fed; vs untreated or mock
Method: For five days, Drosophila were exposed to 1% diacetyl (odor 1) on filter paper; fed known HDAC inhibitor sodium butyrate (Na-but; 10 mM); or fed known HDAC inhibitor valproic acid (10 mM).

[1] = system: H3K14 acetylation in HEK293 cells; assay: Western blot of histone acetylation in HEK293 nuclear extracts: H3K14; assay type: cell-based, human
Method: In order to test whether diacetyl can increase acetylation of histones in vivo, human HEK293 cells were used, which offer a tractable system to prepare nuclear extracts. The cells were exposed to different doses of diacetyl for 2 or 6 hours, and monitored histone acetylation levels by Western blot analysis from nuclear extract. […] The acetylation levels of H3K14 and H4K5 were not affected (FIG. 5A).
Human embryonic kidney 293 (HEK293) cells were grown in 100 mm cell culture dishes with Dulbecco's modified Eagle's medium (DMEM) (10-013, Corning, Manassas, Va.), supplemented with 10% fetal bovine serum (FBS) (26140-079, Gibco, Carlsbad, Calif.) at 37° C. with 5% CO2. Cells that were ˜80% confluent were treated with freshly-prepared medium supplemented with diacetyl at concentrations indicated. In order to prevent diffusion of diacetyl odor from the treatment dishes to the outside environment, the cell culture dishes were put into a custom-made container (155.6×155.6×85.7 mm) with a charcoal filter top. […]
Proteins in the nuclear extracts (60 μg protein) were separated by SDS-PAGE gels (456-1043, Bio-Rad, Hercules, Calif.), transferred onto PVDF membranes (162-0174, Bio-Rad), and incubated with anti-histone antibodies: acetylated H3K9 (1/2000: ab4441, abeam, Cambridge, Mass.), acetylated H3K14 (1/5000: 06-911, EMD Millipore, Billerica, Mass.), acetylated H4K5 (1/2000: 07-327, EMD Millipore). Bound antibody was detected by horseradish peroxidase-conjugated anti-rabbit secondary antibody (1/20000: 1705046, Bio-Rad) and developed using Clarity™ Western ECL Substrate (1705060, Bio-Rad). Signals were detected and captured by ImageQuant™ LAS 4000 mini (GE healthcare, Pittsburgh, Pa.), and band intensities were quantified with ImageJ software. H3K9 acetylation intensity in individual lanes was reported relative to the normalized Mock treatment (Mock H3K9ace/Mock PCNA), and calculated using this formula: Relative H3K9ace intensity for each timepoint=(Diacetyl H3K9ace/diacetyl PCNA)/(Mock H3K9ace/Mock PCNA).

CC(=O)C(C)=O [diacetyl, 2,3-Butanedione]
rhabdomeres left in the majority of ommatidia (pGMR-HTTQ120 flies; 1% headspace, after 10 days, solvent controls ~1-2): 2-3 rhabdomeres | rhabdomeres retained in the majority of ommatidia (pGMR-HTTQ120 flies; 1% headspace, day 5): 6-7 rhabdomeres | rhabdomeres in omatidia vs not exposed flies (pGMR-HTTQ120 flies; GMR-HTTQ120 flies, 1% from filter paper, five days, FIG. 2A): greater rhabdomeres | inhibition of rhabdomere loss (pGMR-HTTQ120 flies; volatile headspace of 1% diacetyl in paraffin oil, after eclosion, 25° C.): 50% | pIC50 (human HDAC3): 2.11 | Gr63a expression in antenna (RNA in situ) (Gr63a): over-expression | H3K14 acetylation level ([1]; 1 mM, 2 or 6 hours): did not alter | H3K14 acetylation level ([1]; 10 mM, 2 hours): not affected | H3K14 acetylation level ([1]; 10 mM, 6 hours): unaffected
